Source: patent US4558134A, “Certain phenoxy-pyridine-carbonitriles having antiviral activity” (The Dow Chemical Company, priority 1983, dated 1985)
Values after ≈ are worked out from the molar mass of the structure shown. Where two headings read alike, the source gives them in different places.

Experiments:
[1] = system: rhinovirus type 1A (RV-1A); experiment: Tissue culture testing, reduction of viral cytopathic effect, RV-1A; type: cell-based; details: Enterovirus, read-out: Lowest concentration of the compound necessary to cause a 50 percent reduction in cytopathic effect, RV-1A
rhinovirus type 2 (RV-2) = experiment: Tissue culture testing, reduction of viral cytopathic effect, RV-2; type: cell-based; details: Enterovirus, read-out: Lowest concentration of the compound necessary to cause a 50 percent reduction in cytopathic effect, RV-2
[2] = system: Coxsackie A21 virus (Cox A21); experiment: Tissue culture testing, reduction of viral cytopathic effect, Cox A21; type: cell-based; details: HeLa cells, 48 and 72 hours, read-out: Lowest concentration of the compound necessary to cause a 50 percent reduction in cytopathic effect, CoxA21
[3] = system: rhinovirus type 39 (RV-39); experiment: Tissue culture testing, reduction of viral cytopathic effect, RV-39; type: cell-based; details: Enterovirus, read-out: Lowest concentration of the compound necessary to cause a 50 percent reduction in cytopathic effect, RV-39
[4] = system: polio virus type 2 (Polio-2); experiment: organism not typed; type: cell-based; details: HeLa, read-out: Lowest concentration of the compound necessary to cause a 50 percent reduction in cytopathic effect, Polio-2
[5] = system: rhinovirus type 64 (RV-64); experiment: Tissue culture testing, reduction of viral cytopathic effect, RV-64; type: cell-based; details: Enterovirus, read-out: Lowest concentration of the compound necessary to cause a 50 percent reduction in cytopathic effect, RV-64
in vitro = details: human, hela cells
Coxsackie A21 virus = experiment: Continuous Oral Feeding test in mice challenged IP with Coxsackie A21 virus; details: 0.06% by weight in diet; 10 days; >3.84 active (95% confidence level)
[6] = HeLa cells, RV-1A, 48 and 72 hours
[7] = HeLa cells, RV-2, 48 and 72 hours
[8] = HeLa cells, RV-39, 48 and 72 hours
[9] = HeLa cells, RV-64, 48 and 72 hours

Row | Compound | EC50 [1, 6] [µg/mL] | EC50 (rhinovirus type 2 (RV-2); [7]) [µg/mL] | EC50 [2] [µg/mL] | EC50 [3, 8] [µg/mL] | EC50 [4] [µg/mL] | EC50 [5, 9] [µg/mL] | MCC (in vitro) [µg/mL] | Continuous Oral Feeding X^2 (chi-square, mortality) (Coxsackie A21 virus) | EC50 ([3]; HeLa) [µg/mL] | EC50 ([1]; HeLa) [µg/mL] | EC50 (rhinovirus type 2 (RV-2); HeLa) [µg/mL] | EC50 ([5]; HeLa) [µg/mL]
1 | CCSc1ccc(Oc2ccc(Cl)c(Cl)c2)nc1C#N [Example 20, 6-(3,4-Dichlorophenoxy)-3-ethylthio-2-pyridinecarbonitrile] | 3.13 (≈ 9.62 µM) | 3.13 (≈ 9.62 µM) | 0.03 (≈ 0.0922 µM) | 6.25 (≈ 19.2 µM) | < 0.78 | 12.5 (≈ 38.4 µM) | > 12.5 | 6.5 | – | – | – | –
2 | CCSc1ccc(Oc2ccc(Cl)c(Cl)c2)c(C#N)n1 [Example 21, 3-(3,4-Dichlorophenoxy)-6-ethylthio-2-pyridinecarbonitrile] | 2.5 (≈ 7.69 µM) | 0.6 (≈ 1.84 µM) | 0.6 (≈ 1.84 µM) | – | – | 2.5 (≈ 7.69 µM) | 2.5 | – | – | – | – | –
3 | CCSc1cnc(Oc2ccc(Cl)c(Cl)c2)cc1C#N [Example 22, 2-(3,4-Dichlorophenoxy)-5-ethylthio-4-pyridinecarbonitrile] | > 50 | 2.5 (≈ 7.69 µM) | 0.63 (≈ 1.94 µM) | – | – | – | 50 | – | – | – | – | –
4 | CCSc1cc(C#N)c(Oc2ccc(Cl)c(Cl)c2)cn1 [Example 23, 5-(3,4-Dichlorophenoxy)-2-ethylthio-4-pyridinecarbonitrile] | > 50 | 2.5 (≈ 7.69 µM) | 2.5 (≈ 7.69 µM) | – | – | – | 50 | – | – | – | – | –
5 | CSc1cc(C#N)c(Oc2ccc(Cl)c(Cl)c2)cn1 [Example 24, 5-(3,4-Dichlorophenoxy)-2-methylthio-4-pyridinecarbonitrile] | > 50 | > 50 | 1.25 (≈ 4.02 µM) | – | – | > 50 | > 50 | – | – | – | – | –
6 | CSc1ccc(Oc2ccc(Cl)c(Cl)c2)nc1C#N [Example 25, 6-(3,4-Dichlorophenoxy)-3-methylthio-2-pyridinecarbonitrile] | 25 (≈ 80.3 µM) | – | < 3.1 | – | – | – | > 50 | – | – | – | – | –
7 | CCSc1ccc(Oc2ccc(C(=O)c3ccccc3)cc2)nc1C#N [Example 26, 6-(4-Benzoylphenoxy)-3-ethylthio-2-pyridinecarbonitrile] | 25 (≈ 69.4 µM) | < 3.1 | < 3.1 | – | – | – | 50 | 27.5 | – | – | – | –
8 | CCSc1ncc(Oc2ccc(Cl)c(Cl)c2)cc1C#N [Example 27, 5-(3,4-Dichlorophenoxy)-2-ethylthio-3-pyridinecarbonitrile] | – | – | < 3.13 | – | – | – | > 50 | – | – | – | – | –
9 | CCSc1cnc(Oc2ccc(Cl)c(Cl)c2)c(C#N)c1 [Example 28, 2-(3,4-Dichlorophenoxy)-5-ethylthio-3-pyridinecarbonitrile] | > 50 | > 50 | 1.25 (≈ 3.84 µM) | – | – | > 50 | > 50 | – | – | – | – | –
10 | C[S+]([O-])c1ccc(Oc2ccc(Cl)c(Cl)c2)nc1C#N (stereo not drawn) [Example 29, 6-(3,4-Dichlorophenoxy)-3-methylsulfinyl-2-pyridinecarbonitrile] | 12.5 (≈ 38.2 µM) | 12.5 (≈ 38.2 µM) | 12.5 (≈ 38.2 µM) | – | – | – | > 50 | – | – | – | – | –
11 | C[S+]([O-])c1ccc(Oc2ccc(Cl)c(Cl)c2)nc1C(N)=O (stereo not drawn) [Example 30, 6-(3,4-Dichlorophenoxy)-3-methylsulfinyl-2-pyridinecarboxamide] | 6.3 (≈ 18.2 µM) | 6.3 (≈ 18.2 µM) | < 3.1 | – | – | – | 25 | – | – | – | – | –
12 | CC[S+]([O-])c1ccc(Oc2ccc(Cl)c(Cl)c2)nc1C#N (stereo not drawn) [Example 31, 6-(3,4-Dichlorophenoxy)-3-ethylsulfinyl-2-pyridinecarbonitrile] | 12.5 (≈ 36.6 µM) | 12.5 (≈ 36.6 µM) | < 3.1 | – | – | – | 50 | – | – | – | – | –
13 | CS(=O)(=O)c1ccc(Oc2ccc(Cl)c(Cl)c2)nc1C#N [Example 32, 6-(3,4-Dichlorophenoxy)-3-methylsulfonyl-2-pyridinecarbonitrile] | 6.25 (≈ 18.2 µM) | 6.25 (≈ 18.2 µM) | > 50 | – | > 12.5 | 3.13 (≈ 9.12 µM) | > 12.5 | 10.1 | > 12.5 | – | – | –
14 | CCS(=O)(=O)c1ccc(Oc2ccc(Cl)c(Cl)c2)nc1C#N [Example 33, 6-(3,4-Dichlorophenoxy)-3-ethylsulfonyl-2-pyridinecarbonitrile] | – | < 3.1 | < 3.1 | – | – | – | 50 | – | – | – | – | –
15 | CCCSc1ccc(Oc2ccc(Cl)c(Cl)c2)nc1C#N [Example 34, 6-(3,4-Dichlorophenoxy)-3-propylthio-2-pyridinecarbonitrile] | – | 3.13 (≈ 9.23 µM) | 0.08 (≈ 0.236 µM) | 25 (≈ 73.7 µM) | 1.56 (≈ 4.6 µM) | > 12.5 | > 50 | – | – | 1.56 (≈ 4.6 µM) | – | –
16 | CCCSc1ccc(Oc2ccc(Cl)c(Cl)c2)c(C#N)n1 [Example 35, 3-(3,4-Dichlorophenoxy)-6-propylthio-2-pyridinecarbonitrile] | 0.78 (≈ 2.3 µM) | – | < 3.13 | – | 12.5 (≈ 36.8 µM) | – | 50 | – | 12.5 (≈ 36.8 µM) | – | 12.5 (≈ 36.8 µM) | > 12.5
17 | CC(C)Sc1ccc(Oc2ccc(Cl)c(Cl)c2)nc1C#N [Example 36, 6-(3,4-Dichlorophenoxy)-3-isopropylthio-2-pyridinecarbonitrile] | ≤ 1.56 | ≤ 1.56 | < 1.56 | 1.56 (≈ 4.6 µM) | – | 3.13 (≈ 9.23 µM) | 12.5 | – | – | – | – | –
18 | CC(C)Sc1ccc(Oc2ccc(Cl)c(Cl)c2)c(C#N)n1 [Example 37, 3-(3,4-Dichlorophenoxy)-6-isopropylthio-2-pyridinecarbonitrile] | 3.13 (≈ 9.23 µM) | < 1.56 | < 1.56 | – | – | ≤ 1.56 | ≥ 25 | – | – | – | – | –
19 | CCCCSc1ccc(Oc2ccc(Cl)c(Cl)c2)nc1C#N [Example 38, 6-(3,4-Dichlorophenoxy)-3-(n-butylthio)-2-pyridinecarbonitrile] | 12.5 (≈ 35.4 µM) | 6.25 (≈ 17.7 µM) | < 1.56 | – | – | 12.5 (≈ 35.4 µM) | > 25 | – | – | – | – | –
20 | CCCCSc1ccc(Oc2ccc(Cl)c(Cl)c2)c(C#N)n1 [Example 39, 3-(3,4-Dichlorophenoxy)-6-(n-butylthio)-2-pyridinecarbonitrile] | > 25 | 3.13 (≈ 8.86 µM) | 1.56 (≈ 4.42 µM) | – | – | 12.5 (≈ 35.4 µM) | ≥ 25 | – | – | – | – | –
21 | CCC(C)Sc1ccc(Oc2ccc(Cl)c(Cl)c2)nc1C#N (stereo not drawn) [Example 40, 6-(3,4-Dichlorophenoxy)-3-(sec-butylthio)-2-pyridinecarbonitrile] | 1.56 (≈ 4.42 µM) | 1.25 (≈ 3.54 µM) | 0.16 (≈ 0.453 µM) | 10 (≈ 28.3 µM) | – | 1.56 (≈ 4.42 µM) | > 25 | – | – | – | – | –
22 | CCC(C)Sc1ccc(Oc2ccc(Cl)c(Cl)c2)c(C#N)n1 (stereo not drawn) [Example 41, 3-(3,4-Dichlorophenoxy)-6-(sec-butylthio)-2-pyridinecarbonitrile] | 6.25 (≈ 17.7 µM) | < 1.56 | ≤ 1.56 | – | – | < 1.56 | > 25 | – | – | – | – | –
23 | CC(C)CSc1ccc(Oc2ccc(Cl)c(Cl)c2)nc1C#N [Example 42, 6-(3,4-Dichlorophenoxy)-3-(isobutylthio)-2-pyridinecarbonitrile] | 12.5 (≈ 35.4 µM) | 6.25 (≈ 17.7 µM) | < 1.56 | – | – | 6.25 (≈ 17.7 µM) | > 25 | – | – | – | – | –
24 | CC(C)CSc1ccc(Oc2ccc(Cl)c(Cl)c2)c(C#N)n1 [Example 43, 3-(3,4-Dichlorophenoxy)-6-(isobutylthio)-2-pyridinecarbonitrile] | 12.5 (≈ 35.4 µM) | ≤ 1.56 | 1.56 (≈ 4.42 µM) | – | – | 3.13 (≈ 8.86 µM) | ≥ 25 | – | – | – | – | –
